Test results reported in US9737525B2, “Small molecule activators of NRF2 pathway” (The General Hospital Corporation, priority 2013, dated 2017).
Entries after “also recorded” stand apart in the source; their conditions may differ. Where two headings read alike, the source gives them in different places.

Legend:
NQO1 = assay: Quantitative NQO1 inducer bioassay in Hepa1c1c7 cells; type: cell-based, murine; details: for Effect of GSH pre-incubation on NQO1 inducer potency: 1 mM GSH at 37° C. for 30 min before cell treatment; for CD value (Concentration which Doubles the specific activity of NQO1): Hepa1c1c7 cells; for CD value (Concentration which Doubles the specific activity of NQO1) / EC (2-fold NQO1 activity): 48 hr exposure; for EC (2-fold NQO1 activity): Mus musculus, Hepa-1c1c7, Table 3, Concentration which Doubles the specific activity of NQO1, read-out: NQD1 CD
Protocol: Cells grown in 96-well plates were exposed to serial dilutions of each compound for 48 hr, and the NQO1 enzyme activity was determined in cell lysates. Results are shown as average values of 8 replicate wells. The standard deviation in each case was less than 5%.
Next, using a quantitative NQO1 inducer bioassay in murine Hepa1c1c7 cells and the CD value (Concentration which Doubles the specific activity of NQO1) as a measure of potency (see Table 2), the activities of the MIND4 analogs were tested and ranked.
Inducer potency was quantified by use of the NQO1 bioassay in Hepa1c1c7 cells as described [Prochaska, 1988]. To examine the effect of GSH on inducer potency, compounds were incubated in cell culture medium containing 1 mM GSH at 37° C. for 30 min before cell treatment.

[1] = target: human recombinant SIRT2 deacetylase (Homo sapiens (Human), UniProt Q8IXJ6); assay: Sirtuin biochemical deacetylation assay, SIRT2; details: for SIRT2 inhibition: dose-response
Protocol: Modulation of sirtuin activity by compounds was assessed using the Flour de Lys fluorescent biochemical assay in a 96-well format as described (Outeiro et al., 2007). The deacetylation reaction was performed at 37° C. for an hour in the presence of human recombinant enzymes: SIRT1 (BioMol-SE-239) 1 unit/per reaction, SIRT2 (BioMol-SE-251) 5 units/per reaction, or SIRT3 (BioMol-SE-270) 5 units/per reaction, compound of interest, standard buffer, 50 μM substrate, and 500 μM NAD^+ according to the manufacturer's protocol. […]

[2] = tested on: Nrf2-responsive proteins NQO1 and GCLM; assay: NRF2 responses in wild type and mutant SOD1 (G93A) primary astroglia; type: cell-based; details: wild type and mutant SOD1 (G93A) mouse primary astroglia
From the text: Primary glia was derived from wild type and mutant SOD1 (G93A) mice and treated with MIND4 and MIND4-17 at indicated doses. The expression NRF2 responsive NQO1 and GCLM proteins were detected by immunochemistry. […] Importantly, compounds had no effects on human mutant SOD1 transgene, expressing in mice from human promoter.

[3] = target: recombinant human KEAP1 protein (Homo sapiens (Human), UniProt Q14145); assay: SPR (Surface Plasmon Resonance) Biacore binding assay
Protocol: Briefly, compound MIND4-17 and MIND4 binding to baculovirous expressed KEAP1 by Surface Plasmon Resonance (SPR) binding Biacore assay was performed by CRO Precision Antibody, Inc. Binding experiments were performed on Biacore T-200 at 25° C. using CM5 chip. Anti-GST tag antibody was immobilized by amine coupling. The ligand KEAP1 was captured until 800 RU was reached. Antigen was flowed over the chip at variable concentrations. Binding of analyte to the ligand was monitored in real time to obtain on (ka) and off (kd) rates. The equilibrium constant (KD) was calculated from the observed ka and kd. In pilot experiment the analytes MIND4 and MIND4-17 were flowed over the chip at 3 different concentrations as indicated and kinetic analysis was performed. Full kinetic analysis was performed for MIND4-17 using analyte concentrations of 140 μM (the saturating amount) and run at serial dilutions 70, 35, 17.5, 8.75, 4.375 and 0. Chi square (χ^2) analysis was carried out between the actual Sensorgram (colored line) and the sensorgram generated from the BIAnalysis software (black line) to determine the accuracy of the analysis. (χ^2) value within 2-1 is considered significant (accurate) and below 1 is highly significant (highly accurate). The flow rate used for capturing the ligand was […] and the flow rate for kinetics analysis was […]. The Biacore binding assay was performed using assay buffer: 10 mM HEPES buffer (pH 7.4), 150 mM NaCl, 3 mM EDTA, 0.005% P20 (polyoxyethylenesorbitan), 5% DMSO; regeneration buffer: 10 mM HEPES buffer (pH 7.4), 150 mM NaCl, 3 mM EDTA, 0.005% P20 (polyoxyethylenesorbitan), 5% DMSO; and conjugation buffer: 10 mM sodium acetate buffer (pH 4.5).

[4] = tested on: 5×-ARE promoter-luciferase reporter; assay: 5×-ARE-luciferase reporter assay in primary corticostriatal co-cultures; type: cell-based, mouse; details: 5 μM, 4 hr or 16 hr
Protocol: Primary corticostriatal neuronal co-cultures were prepared from E18 mouse brains as previously described [Kaltenbach, 2010]. Mice were maintained in accordance with Duke University Medical Center Institutional Animal Care and Use Committee guidelines. For 5×-ARE-luciferase reporter assays, neurons were transfected following their isolation (Nucleofector, Lonza) with 2.5 μg Cignal Antioxidant Response Reporter dual luciferase plasmids (Qiagen/SABiosciences) and plated onto pre-established glial beds in 96 well plates. After 4 days in culture at 37° C. under 5% CO2, co-cultures were treated with the indicated compounds for 4 hr or 16 hr then harvested and read for luminescence from firefly and Renilla luciferases according to the Dual Glo luciferase protocol (Promega) using a SpectraMaxL luminometer (Molecular Devices). Each sample was measured in technical triplicate. For quantitative RT-PCR (qPCR) of ARE target genes, corticostriatal co-cultures were prepared as described above and, after 4 days in culture, treated for 6 hr with the indicated compounds followed by RNA harvesting according to the Absolutely RNA miniprep protocol (Agilent Technologies). Purified RNA was converted to cDNA using random hexamers and SuperScript First-Strand RT-PCR Synthesis (Invitrogen). […] Ct values were determined using primer sets against ARE genes Hmox1, Gclc and Nqo1]. […]

recombinant human KEAP1 protein, sequence (Q14145 whole entry): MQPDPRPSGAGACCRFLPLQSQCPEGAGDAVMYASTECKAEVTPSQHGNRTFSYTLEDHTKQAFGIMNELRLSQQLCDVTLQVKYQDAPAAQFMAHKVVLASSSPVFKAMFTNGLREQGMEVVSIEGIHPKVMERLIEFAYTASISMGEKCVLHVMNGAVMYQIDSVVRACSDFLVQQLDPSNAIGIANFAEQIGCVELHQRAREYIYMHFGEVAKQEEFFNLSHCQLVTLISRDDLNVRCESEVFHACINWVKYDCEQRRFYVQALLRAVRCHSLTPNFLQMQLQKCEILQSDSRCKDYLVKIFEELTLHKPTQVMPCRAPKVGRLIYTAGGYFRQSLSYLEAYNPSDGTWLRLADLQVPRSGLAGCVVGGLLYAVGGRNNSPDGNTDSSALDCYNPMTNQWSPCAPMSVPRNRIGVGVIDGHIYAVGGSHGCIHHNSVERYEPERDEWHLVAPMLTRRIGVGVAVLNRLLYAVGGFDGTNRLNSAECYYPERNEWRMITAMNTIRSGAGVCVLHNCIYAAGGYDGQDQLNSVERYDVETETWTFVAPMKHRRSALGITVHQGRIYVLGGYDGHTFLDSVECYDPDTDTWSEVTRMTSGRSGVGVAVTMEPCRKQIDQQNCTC
human recombinant SIRT2 deacetylase, sequence (Q8IXJ6 whole entry): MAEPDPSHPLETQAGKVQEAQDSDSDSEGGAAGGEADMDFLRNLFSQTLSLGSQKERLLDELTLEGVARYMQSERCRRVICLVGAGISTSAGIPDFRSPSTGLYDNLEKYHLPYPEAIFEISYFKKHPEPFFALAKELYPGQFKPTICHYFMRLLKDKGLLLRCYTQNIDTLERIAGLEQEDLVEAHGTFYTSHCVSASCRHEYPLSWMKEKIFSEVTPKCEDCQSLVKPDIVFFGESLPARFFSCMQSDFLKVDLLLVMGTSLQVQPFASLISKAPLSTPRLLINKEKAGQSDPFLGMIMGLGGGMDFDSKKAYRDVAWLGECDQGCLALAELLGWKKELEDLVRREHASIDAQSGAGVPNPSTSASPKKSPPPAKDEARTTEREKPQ

## O=[N+]([O-])c1ccc(Sc2nnc(COc3ccccc3)n2-c2ccccc2)nc1 [MIND4-17]
NQO1
  Effect of GSH pre-incubation on NQO1 inducer potency: drastically reduced the potency
  CD value (Concentration which Doubles the specific activity of NQO1): 0.15 µM
  EC (2-fold NQO1 activity): 0.15 µM
[1]; Table 3
  IC50: > 50 µM
[1]
  SIRT2 inhibition: no inhibitory activity; also recorded: no detectable SIRT2 inhibition activity
[2]
  Induction of Nrf2-responsive proteins NQO1 and GCLM: dose-dependent induction
[3]
  Kd: 16.5 µM
  Mode of binding to KEAP1: reversible binding
[3]; 25° C., kinetic analysis
  Kd: 16.5 µM
[4]
  Transcriptional rate of 5×-ARE promoter-luciferase reporter: able to induce increases in the transcriptional rate

## O=[N+]([O-])c1ccc(Sc2nnc(COc3ccccc3)n2-c2ccccc2)c2ncccc12 [MIND4, 5-nitro-8-{[5-(phenoxymethyl)-4-phenyl-4H-1,2,4-triazol-3-yl]thio}quinoline]
NQO1
  Effect of GSH pre-incubation on NQO1 inducer potency: much less pronounced effect
  CD value (Concentration which Doubles the specific activity of NQO1): 1.3 µM
  EC (2-fold NQO1 activity): 1.3 µM
[1]; Table 1
  IC50: 1.7 µM
[1]; Table 3
  IC50: 3.5 µM
[1]
  SIRT2 inhibition: dose-dependent and selective inhibition of human recombinant SIRT2 deacetylase
[2]
  Induction of Nrf2-responsive proteins NQO1 and GCLM: dose-dependent induction
[3]
  Kd: 22.8 µM
  Mode of binding to KEAP1: reversible binding
[3]; 25° C., kinetic analysis
  Kd: 22.8 µM
[4]
  Transcriptional rate of 5×-ARE promoter-luciferase reporter: able to induce increases in the transcriptional rate
